Measurements published in US8597664B2, “Endogenous adjuvant molecules and uses thereof” (University of Massachusetts, priority 2003, dated 2013).

Tests used:
[1] = system: dendritic cells; assay: Expression of CD80 and CD86 on dendritic cells from TLR4+/+ or TLR4-/- mice; assay type: cell-based, C57BL/6 (TLR4+/+) or C.C3H lps-d (TLR4-/-) mice; conditions: 6 hours
Method: (§1) Bone marrow was cultured for 7 days in media containing 10 u/ml of both GM-CSF and IL-4, as previously described.^24 Fresh media (50% volume) containing cytokines was added at the 4th day of culture. At day 7, floating cells were removed by aspiration after gentle rocking, and soluble or crystalline uric acid was added. Following a 6 hour incubation, the media was gently removed and replaced with PBS containing either 0.5% heparin (sigma) or 0.5 μM polyvinyl sulfate (100 KD, Sigma) in order to detach bound crystals. Following a 10 minute incubation, cells were gently removed by scraping, washed once in 50 ml of media and 3 times with 50 ml of PBS in order to dissolve any remaining crystals, and then stained and assayed by flow cytometry as previously described.^15 To quantify MSU crystal formation in culture, a parallel set of wells was prepared without dendritic cells, and the crystals harvested by centrifugation, washed with absolute alcohol and dissolved in 0.1N NaOH. The amount of uric acid in the solubilized precipitates was determined by measuring UV absorption at 292 nm against a set of standard uric acid/NaOH solutions.
As discussed in Example III, LPS has a stimulatory activity and is frequently a contaminant of reagents. Dendritic cells from the TLR4-null mice were examined to verify that LPS was not the source of the observed stimulatory activity.

[2] = system: CD8 T cell (CTL) responses to particulate HIV gp120 antigen; assay: CTL priming after co-injection of adjuvant with gp120/latex beads (51Cr-release CTL assay); assay type: in vivo, Balb/c mice
Method: Immunization of mice with antigen-polystyrene beads (2-10 μg) +/− cytosolic fractions and assays for the priming of CTL were performed as previously described ^16. Fractions from the GF-250 column were injected without further manipulation, while fractions from all other columns were dried and reconstituted to normal osmolarity before injection. Fractions from 1%-10% of liver cytosol were typically injected into mice. Pooled fractions without adjuvant activity were standardly used as negative controls. For in vitro stimulation, splenocytes from immunized mice were stimulated directly with 10^−8 M peptide (RGPGRAFVTL-SEQ ID NO: 1 or SIINFEKL-SEQ ID NO: 2) and were then assayed as previously described.^16
Each four consecutive fractions (4 minutes) were pooled and tested for their ability to augment the priming of CD8 T cell responses when co-injected with particulate HIV gp120 antigen. After 14 days, splenocytes were harvested from the primed animals and were stimulated ex vivo with either antigen-transfected or peptide-pulsed syngeneic cells. The re-stimulated cells were then assayed for their ability to kill antigen-bearing target cells in a standard ^51Cr-release as say.^16
To further evaluate this point, highly purified uric acid was tested for adjuvant activity. Highly purified uric acid (50 μg), highly purified LMW fraction from a C18 column, or PBS as control were mixed with 5 μg gp120/latex beads in 100 μl of saline and injected into two Balb/c mice. CTL from these mice were assayed for killing of 15.12 (gp120-transfected 3T3) cells (filled triangles), or vector-transfected control 3T3 cells (open squares). Results from individual mice are presented (FIG. 3A-C, wherein % Lysis indicates the degree of cell killing and the E:T ratio indicates the ratio of Effector cell:Target cell, e.g., the ratio of cytotoxic T-cell: antigen positive target cell).
To determine more precisely the amount of uric acid necessary to provide an adjuvant effect in vivo, the amount of uric acid injected into mice was titrated from 2.5-40 μg (in 100 μl; from a concentration of 25-400 μg/ml) and adjuvant activity assayed as described in Example II above. […] This amount of uric acid is produced by about 2×10^6 UV-treated 3T3 cells (See FIG. 3J).
To further evaluate the activity of xanthine crystals, xanthine crystals were tested for adjuvant activity in experiments carried out similarly to those described in Example II above. Highly purified uric acid (500 μg), highly purified xanthine (500 μg), or PBS as control were mixed with 2 μg gp120/latex beads in 100 μl of saline and injected into two Balb/c mice. CTL from these mice were assayed for killing of 15.12 (gp120-transfected 3T3) cells (filled squares). Results from individual mice are presented (FIG. 6A-C), wherein % Lysis indicates the degree of cell killing and the E:T ratio indicates the ratio of Effector cell:Target cell, e.g., the ratio of cytotoxic T-cell:antigen presenting cell.

[3] = system: EL4 cells; assay: Uric acid measurement in the cytosol of treated cells; assay type: cell-based; conditions: 25 μg/ml cycloheximide or 8 μM emetine, after 5 hours; untreated cells below limit of detection
Method: EL4 cells (10^8) were resuspended in 5 ml of culture media and incubated at 37° C. for 5 hours after being treated for one hour with emetine^16 or cycloheximide or heat shocked for 20 minutes at 45° C. (see FIG. 3J). 3T3 cells grown in 15 cm dishes were either untreated or exposed to UV light for 5 minutes and incubated in 5 hours. The cells were suspended without washing and disrupted by nitrogen cavitation followed by centrifugation, as described.^16 The resulting supernatants were diluted with 0.1 M borate, and analyzed for uric acid content using a uric acid detection kit (Molecular Probes).
EL4 cells were either heat shocked for 20 minutes at 45° C., incubated with 25 μg/ml cycloheximide, incubated with 8 μM emetine or untreated as control. 3T3 cells were either UV-irradiated or untreated as control. These treatments were previously shown by the instant inventors to increase adjuvant activity. The amount of uric acid in the cytosol of the treated cells was determined after 5 hours of incubation. […] An approximately 4-fold increase in uric acid was also observed when 3T3 cells were treated with UV (FIG. 3J).

[4] = Precipitation of uric acid to MSU crystals; assay type: physicochemical; conditions: uric acid 70 μg/ml
Method: as §1
As discussed in Example III, LPS has a stimulatory activity and is frequently a contaminant of reagents. Dendritic cells from the TLR4-null mice were examined to verify that LPS was not the source of the observed stimulatory activity. […]

[5] = system: bone marrow-derived dendritic cells (CD11c+); assay: Expression of CD80 and CD86 on bone marrow-derived dendritic cells by flow cytometry; assay type: cell-based, Balb/c mice
Method: as §1
Accordingly, the effect of uric acid on expression of costimulators on cultured dendritic cells was tested. Uric acid was added to cultures of primary bone-marrow derived dendritic cells. Specifically, bone marrow-derived dendritic cells from Balb/c mice in 6 well plates were untreated (thin continuous line) or incubated with 20 μl of pre-formed MSU crystals (about 1.2 mg/ml final concentration) for 6 hours (heavy dashed lines) or 24 hours (heavy continuous lines). The expression of CD80 and CD86 on CD11c+ cells was then analyzed by flow cytometry.
Based upon the results set forth in Examples I-VI which identify MSU crystals as having adjuvant activity, it was concluded that other crystals with similar properties should display djuvant activity. […] The expression of CD86 on CD11c+ cells was then analyzed by flow cytometry.

[6] = system: CD8 T cell (CTL) responses to particulate HIV gp120 antigen; assay: CTL priming after co-injection with antigen in LPS-nonresponsive TLR4 null mice; assay type: in vivo, C.C3H lps-d (TLR4-/-) mice; conditions: injected together with antigen
Method: Lipopolysaccharide (LPS) has potent immunostimulatory activity and is a frequent contaminant of buffers and other reagents. Although every attempt was made to avoid contamination of preparations with endotoxin, it was important to exclude the possibility that LPS was present in the LMW fraction and responsible for the adjuvant activity. Accordingly, similar experiments to those of Example II were carried out except that purified LMW fraction or commercially-obtained highly purified uric acid was injected together with antigen into toll-like receptor 4 (TLR4) null mice, which are nonresponsive to LPS. Specifically, congenic C.C3H lps-d (TLR4−/−) mice were used in place of Balb/c (TLR4+/+) mice.

[7] = reported (ref. 18); cited from earlier work
[8] = Toxicity observed in the Examples; assay type: in vivo; conditions: as used in the Examples
Excerpt: With respect to potential toxicity of the crystalline adjuvant, local reaction to injections or other morbidity of animals immunized with any adjuvant within the scope of the invention, e.g., a crystalline adjuvant, can be readily determined. With respect to the crystalline adjuvants of the present invention displaying characteristics similar to uric acid or xanthine, significant toxicity is not expected. […] Uric acid and xanthine are normal components of mammals and local administration should be relatively safe. Uric acid is effective when injected subcutaneously, which is an effective and well tolerated immunization protocol. Uric acid and xanthine thus have favorable characteristics for an adjuvant, and crystalline molecules having similar characteristics, such as those described herein, are also expected to behave favorably as immune adjuvants.

O=c1[nH]c(=O)c2[nH]c([O-])nc2[nH]1.[Na+] [MSU crystals, monosodium urate]
stimulatory effect on dendritic cells from TLR4-null mice ([1]; C.C3H lps-d (TLR4-/-) cells): the stimulatory effect was also found
stimulatory effect on dendritic cells (CD80, CD86) compared with LPS ([1]; MSU crystals about 1.2 mg/ml versus 1 μg/ml LPS): stronger than that induced by high concentrations of LPS
stimulation of dendritic cells in vitro, preformed crystals versus soluble uric acid ([1]; preformed MSU crystals about 1.2 mg/ml, soluble uric acid 70 μg/ml): highly stimulatory
activity of preformed crystals injected in vivo ([2]; preformed MSU crystals): active

C[C@@H]1C[C@@H]([C@H](O)CC2CC(=O)NC(=O)C2)C(=O)[C@@H](C)C1 [cycloheximide]
uric acid in the cytosol of treated EL4 cells [3]: increased dramatically

CC[C@H]1CN2CCc3cc(OC)c(OC)cc3[C@@H]2C[C@@H]1C[C@H]1NCCc2cc(OC)c(OC)cc21 [emetine]
uric acid in the cytosol of treated EL4 cells [3]: increased dramatically

O=c1[nH]c(=O)c2[nH]c(=O)[nH]c2[nH]1 [uric acid]
crystal precipitation in dendritic cell culture [4]: crystals do not precipitate within 6 hours
expression of CD86 on CD11c+ dendritic cells ([5]; 20 μl pre-formed MSU crystals (about 1.2 mg/ml final), 6 or 24 hours): markedly and rapidly
correlation of dendritic cell activation (CD86) with crystal formation ([5]; uric acid titrated in culture, 24 hours): stimulated at precisely the concentrations of uric acid that led to crystal formation
CTL priming ([2]; 50 μg uric acid mixed with 5 μg gp120/latex beads in 100 μl saline): enhanced CTL priming to a similar degree as the purified LMW fraction
adjuvant effect ([2]; 10-50 μg of uric acid in 100 μl): strong adjuvant effect
amount of uric acid providing an adjuvant effect when injected in vivo ([2]; titrated from 2.5-40 μg in 100 μl): about 10 μg
concentration of uric acid providing an adjuvant effect when injected in vivo ([2]; titrated from 25-400 μg/ml, 100 μl injected): ~100 µg/mL
adjuvant activity in LPS-nonresponsive mice [6]: had adjuvant activity
concentration at which uric acid precipitates in vivo [7]: > 70 µg/mL
toxicity [8]: have not been observed

O=c1[nH]c(=O)c2[nH]cnc2[nH]1 [xanthine]
expression of CD86 on CD11c+ dendritic cells ([5]; pre-formed crystals at 300 μg/ml final concentration, 6 hours): increase their expression of CD86 markedly
CTL priming ([2]; 500 μg crystals mixed with 2 μg gp120/latex beads in 100 μl saline): enhanced CTL priming to a similar degree as the MSU crystals
toxicity [8]: have not been observed
